Experimental data published in the supplement of paper PMC5662764.
± gives the standard deviation of the averaged measurements.

Experiments:
Assay in all cases: normalised growth rate inhibition (GR value) relative to DMSO control (GR (1 = untreated growth, 0 = cytostasis, <0 = cytotoxic)); higher = less growth inhibition
Conditions in all cases: 72 h
BT20 = system: BT20
Method: (§1)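 Breast cancer cell lines (BT-20, Hs 578T, MCF 10A, MCF7, MDA-MB-231, SK-BR-3) were plated in 384-well plates and treated 24 h later with drugs at six concentrations (0.04-10 µM). Viable cells were counted by Hoechst/dead-cell-stain imaging at 0 and 72 h. Counts were normalised to DMSO controls on the same plate to give the relative cell count and the growth-rate inhibition (GR) value; technical plate triplicates were averaged for each biological replicate.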

HS578T = system: HS578T
Method: as §1

MCF10A = system: MCF10A
Method: as §1

MCF7 = system: MCF7
Method: as §1

MDAMB231 = system: MDAMB231
Method: as §1

SKBR3 = system: SKBR3
Method: as §1

Compound | normalised growth rate inhibition (BT20; 0.04 µM) | normalised growth rate inhibition (BT20; 0.12 µM) | normalised growth rate inhibition (BT20; 0.37 µM) | normalised growth rate inhibition (BT20; 1.11 µM) | normalised growth rate inhibition (BT20; 3.33 µM) | normalised growth rate inhibition (BT20; 10 µM) | normalised growth rate inhibition (HS578T; 0.04 µM) | normalised growth rate inhibition (HS578T; 0.12 µM) | normalised growth rate inhibition (HS578T; 0.37 µM) | normalised growth rate inhibition (HS578T; 1.11 µM) | normalised growth rate inhibition (HS578T; 3.33 µM) | normalised growth rate inhibition (HS578T; 10 µM) | normalised growth rate inhibition (MCF10A; 0.04 µM) | normalised growth rate inhibition (MCF10A; 0.12 µM) | normalised growth rate inhibition (MCF10A; 0.37 µM) | normalised growth rate inhibition (MCF10A; 1.11 µM) | normalised growth rate inhibition (MCF10A; 3.33 µM) | normalised growth rate inhibition (MCF10A; 10 µM) | normalised growth rate inhibition (MCF7; 0.04 µM) | normalised growth rate inhibition (MCF7; 0.12 µM) | normalised growth rate inhibition (MCF7; 0.37 µM) | normalised growth rate inhibition (MCF7; 1.11 µM) | normalised growth rate inhibition (MCF7; 3.33 µM) | normalised growth rate inhibition (MCF7; 10 µM) | normalised growth rate inhibition (MDAMB231; 0.04 µM) | normalised growth rate inhibition (MDAMB231; 0.12 µM) | normalised growth rate inhibition (MDAMB231; 0.37 µM) | normalised growth rate inhibition (MDAMB231; 1.11 µM) | normalised growth rate inhibition (MDAMB231; 3.33 µM) | normalised growth rate inhibition (MDAMB231; 10 µM) | normalised growth rate inhibition (SKBR3; 0.04 µM) | normalised growth rate inhibition (SKBR3; 0.12 µM) | normalised growth rate inhibition (SKBR3; 0.37 µM) | normalised growth rate inhibition (SKBR3; 1.11 µM) | normalised growth rate inhibition (SKBR3; 3.33 µM) | normalised growth rate inhibition (SKBR3; 10 µM)
C=CC(=O)Nc1cccc(Nc2nc(NC3CCC(N(C)C)CC3)nc3c2ncn3C(C)C)c1 (stereo not drawn) [WZ-3105] | 0.223 ± 0.13 | 0.0547 ± 0.14 | -0.0538 ± 0.17 | -0.207 ± 0.19 | -0.253 ± 0.18 | -0.328 ± 0.19 | -0.121 ± 0.089 | -0.138 ± 0.075 | -0.127 ± 0.097 | -0.135 ± 0.11 | -0.147 ± 0.1 | -0.143 ± 0.14 | 0.523 ± 0.12 | 0.188 ± 0.13 | -0.101 ± 0.14 | -0.224 ± 0.24 | -0.245 ± 0.25 | -0.269 ± 0.24 | -0.317 ± 0.065 | -0.303 ± 0.097 | -0.28 ± 0.11 | -0.254 ± 0.091 | -0.27 ± 0.062 | -0.296 ± 0.05 | -0.23 ± 0.13 | -0.232 ± 0.15 | -0.235 ± 0.16 | -0.237 ± 0.16 | -0.232 ± 0.12 | -0.132 ± 0.12 | -0.298 ± 0.15 | -0.287 ± 0.18 | -0.269 ± 0.18 | -0.273 ± 0.18 | -0.266 ± 0.15 | -0.227 ± 0.19
CNC(=O)c1ccc(Nc2cc(Nc3ccccc3S(=O)(=O)C(C)C)c3cc[nH]c3n2)nc1 [HG-5-113-01] | 0.953 ± 0.041 | 0.8835 ± 0.0077 | 0.785 ± 0.069 | 0.601 ± 0.057 | 0.295 ± 0.051 | -0.158 ± 0.11 | 0.9393 ± 0.0065 | 0.9 ± 0.013 | 0.77 ± 0.043 | 0.443 ± 0.17 | 0.109 ± 0.13 | -0.0329 ± 0.066 | 0.968 ± 0.013 | 0.92 ± 0.036 | 0.851 ± 0.034 | 0.713 ± 0.031 | 0.312 ± 0.16 | -0.0419 ± 0.062 | 0.866 ± 0.069 | 0.718 ± 0.18 | 0.399 ± 0.21 | 0.163 ± 0.11 | 0.064 ± 0.018 | -0.222 ± 0.1 | 0.969 ± 0.058 | 0.888 ± 0.068 | 0.705 ± 0.12 | 0.35 ± 0.19 | 0.123 ± 0.089 | -0.0611 ± 0.15 | 0.875 ± 0.062 | 0.798 ± 0.16 | 0.514 ± 0.3 | 0.0629 ± 0.15 | -0.121 ± 0.069 | -0.148 ± 0.12
N#CC[C@H](C1CCCC1)n1cc(-c2ncnc3[nH]ccc23)cn1 [ruxolitinib] | 0.973 ± 0.066 | 0.942 ± 0.019 | 0.95 ± 0.046 | 0.973 ± 0.08 | 0.933 ± 0.087 | 0.707 ± 0.074 | 0.9891 ± 0.0054 | 0.985 ± 0.039 | 0.973 ± 0.023 | 0.9536 ± 0.0035 | 0.901 ± 0.021 | 0.693 ± 0.031 | 0.9818 ± 0.0081 | 0.9898 ± 0.007 | 0.978 ± 0.011 | 0.956 ± 0.019 | 0.948 ± 0.021 | 0.828 ± 0.039 | 0.967 ± 0.062 | 0.948 ± 0.047 | 0.963 ± 0.042 | 1.05 ± 0.038 | 1.05 ± 0.027 | 0.778 ± 0.075 | 0.938 ± 0.065 | 0.922 ± 0.052 | 0.933 ± 0.087 | 0.95 ± 0.069 | 0.95 ± 0.043 | 0.673 ± 0.26 | 0.882 ± 0.12 | 0.903 ± 0.098 | 0.922 ± 0.086 | 0.918 ± 0.057 | 0.958 ± 0.084 | 0.81 ± 0.18
Cc1nc(Nc2ncc(C(=O)Nc3c(C)cccc3Cl)s2)cc(N2CCN(CCO)CC2)n1 [dasatinib] | 0.622 ± 0.27 | 0.364 ± 0.2 | 0.0964 ± 0.081 | 0.0125 ± 0.077 | -0.085 ± 0.094 | -0.163 ± 0.1 | 0.394 ± 0.28 | 0.17 ± 0.22 | 0.0194 ± 0.17 | -0.0213 ± 0.16 | -0.0565 ± 0.17 | -0.109 ± 0.15 | 0.621 ± 0.24 | 0.391 ± 0.23 | 0.196 ± 0.14 | 0.0869 ± 0.091 | -0.0296 ± 0.08 | -0.138 ± 0.061 | 0.342 ± 0.32 | 0.0795 ± 0.2 | -0.0261 ± 0.17 | -0.0357 ± 0.15 | -0.0394 ± 0.16 | -0.0825 ± 0.16 | 0.159 ± 0.29 | -0.107 ± 0.1 | -0.204 ± 0.032 | -0.233 ± 0.054 | -0.239 ± 0.061 | -0.259 ± 0.12 | 0.998 ± 0.06 | 0.937 ± 0.08 | 0.942 ± 0.058 | 0.766 ± 0.064 | 0.398 ± 0.15 | -0.166 ± 0.22
CC(=O)Nc1nc(C)c(-c2ccc(Cl)c(S(=O)(=O)NCCO)c2)s1 | 1.024 ± 0.0077 | 1.02 ± 0.03 | 1.05 ± 0.034 | 0.973 ± 0.068 | 0.746 ± 0.033 | 0.0954 ± 0.044 | 1.013 ± 0.0069 | 1.01 ± 0.02 | 0.99 ± 0.056 | 0.929 ± 0.093 | 0.585 ± 0.16 | 0.162 ± 0.19 | 0.9973 ± 0.0055 | 0.995 ± 0.02 | 0.993 ± 0.029 | 0.959 ± 0.026 | 0.831 ± 0.094 | 0.502 ± 0.077 | 1.08 ± 0.094 | 1.03 ± 0.14 | 0.994 ± 0.22 | 0.88 ± 0.28 | 0.441 ± 0.11 | 0.0722 ± 0.078 | 1.01 ± 0.055 | 1.01 ± 0.061 | 0.999 ± 0.1 | 0.919 ± 0.061 | 0.78 ± 0.036 | 0.272 ± 0.021 | 1.09 ± 0.03 | 1.09 ± 0.045 | 1.01 ± 0.094 | 0.916 ± 0.12 | 0.597 ± 0.037 | 0.00524 ± 0.12
Nc1ccc(C(=O)Nc2cccc(-c3nc(N4CCOCC4)c4oc5ncccc5c4n3)c2)cn1 | 1.06 ± 0.025 | 0.999 ± 0.032 | 0.938 ± 0.029 | 0.746 ± 0.053 | 0.577 ± 0.07 | 0.0483 ± 0.094 | 1.02 ± 0.029 | 0.984 ± 0.013 | 0.972 ± 0.033 | 0.865 ± 0.022 | 0.668 ± 0.029 | 0.13 ± 0.053 | 1.015 ± 0.0057 | 0.989 ± 0.01 | 0.951 ± 0.022 | 0.824 ± 0.025 | 0.734 ± 0.051 | 0.301 ± 0.043 | 1.06 ± 0.031 | 0.963 ± 0.034 | 0.856 ± 0.046 | 0.606 ± 0.041 | 0.37 ± 0.12 | -0.043 ± 0.35 | 1.04 ± 0.032 | 0.954 ± 0.058 | 0.869 ± 0.082 | 0.747 ± 0.094 | 0.657 ± 0.14 | 0.0924 ± 0.24 | 1.12 ± 0.043 | 1.03 ± 0.053 | 1.03 ± 0.075 | 0.89 ± 0.072 | 0.769 ± 0.052 | 0.17 ± 0.047
CCOc1cc2ncc(C#N)c(Nc3ccc(OCc4ccccn4)c(Cl)c3)c2cc1NC(=O)/C=C/CN(C)C [neratinib] | 0.724 ± 0.042 | 0.669 ± 0.069 | 0.617 ± 0.11 | 0.528 ± 0.11 | 0.41 ± 0.12 | 0.301 ± 0.13 | 0.887 ± 0.0023 | 0.81 ± 0.0089 | 0.649 ± 0.085 | 0.485 ± 0.22 | 0.274 ± 0.24 | 0.0282 ± 0.1 | 0.441 ± 0.24 | 0.314 ± 0.19 | 0.191 ± 0.11 | 0.168 ± 0.098 | 0.131 ± 0.058 | 0.122 ± 0.054 | 0.722 ± 0.12 | 0.663 ± 0.081 | 0.585 ± 0.042 | 0.419 ± 0.23 | 0.299 ± 0.21 | 0.0822 ± 0.12 | 0.907 ± 0.13 | 0.868 ± 0.15 | 0.728 ± 0.12 | 0.581 ± 0.23 | 0.387 ± 0.29 | 0.0691 ± 0.39 | -0.108 ± 0.19 | -0.114 ± 0.2 | -0.14 ± 0.19 | -0.118 ± 0.22 | -0.152 ± 0.22 | -0.215 ± 0.19
OCCCNc1cc(-c2ccnc(Nc3cccc(Cl)c3)n2)ccn1 | 0.32 ± 0.6 | -0.203 ± 0.17 | -0.291 ± 0.18 | -0.323 ± 0.18 | -0.37 ± 0.19 | -0.43 ± 0.17 | 0.343 ± 0.56 | -0.0634 ± 0.17 | -0.144 ± 0.099 | -0.162 ± 0.09 | -0.188 ± 0.14 | -0.228 ± 0.13 | 0.263 ± 0.55 | -0.205 ± 0.21 | -0.228 ± 0.22 | -0.24 ± 0.21 | -0.242 ± 0.21 | -0.231 ± 0.16 | 0.312 ± 0.68 | -0.264 ± 0.073 | -0.315 ± 0.074 | -0.332 ± 0.09 | -0.363 ± 0.09 | -0.429 ± 0.097 | 0.257 ± 0.49 | -0.139 ± 0.17 | -0.226 ± 0.15 | -0.295 ± 0.15 | -0.318 ± 0.15 | -0.319 ± 0.13 | 0.398 ± 0.76 | 0.11 ± 0.49 | -0.227 ± 0.18 | -0.278 ± 0.16 | -0.344 ± 0.15 | -0.414 ± 0.18
